# Key:
# Assay type in all cases: ADME, organism-based
# [1] = Clearance in Sprague-Dawley rat at 10 mg/kg, po or […], iv; details: in vivo
# [2] = Volume of distribution at steady state in Sprague-Dawley rat at 10 mg/kg, po or […], iv; details: in vivo, read-out: Vdss
# [3] = Half life in Sprague-Dawley rat at 10 mg/kg, po or […], iv; details: in vivo
# [4] = Oral bioavailability in Sprague-Dawley rat at 10 mg/kg; details: in vivo
# Rattus norvegicus = assay: Dose normalized AUC (0 to infinity) in Sprague-Dawley rat at 1 mg/kg, po; design: dose 1 mg/kg, route oral, time infinity; details: in vivo
clearance [1],Vd [2],half-life [3],bioavailability [4],AUC (Rattus norvegicus),Compound
13 mL/min/kg,0.5 L/kg,3 h,40%,514 ng·h/mL,Cc1cc(C)c(NC(=O)Nc2cc3ccccc3cc2C(=O)N[C@H](C(=O)O)[C@@H](C)OC(C)(C)C)c(C)c1
26 mL/min/kg,1.9 L/kg,4 h,17%,256 ng·h/mL,Cc1cc(C)c(NC(=O)Nc2cc3ccccc3cc2C(=O)N[C@@H](COC(C)(C)C)C(=O)O)c(C)c1
4 mL/min/kg,0.6 L/kg,2.8 h,8%,320 ng·h/mL,CCCC[C@H](NC(=O)c1cc2ccccc2cc1NC(=O)Nc1c(C)cc(C)cc1C)C(=O)O
